Where two headings read alike, the source gives them in different places. Bounds are passed on as bounds.

Type in all cases: cell-based
One experiment has as its target T1, IDH2/R140Q (Homo sapiens, UniProt P48735, R140Q).
T1 construct: expressed in transfected cells; host or cells: U87MG glioma cells
T1 sequence (P48735 40-452 R140Q): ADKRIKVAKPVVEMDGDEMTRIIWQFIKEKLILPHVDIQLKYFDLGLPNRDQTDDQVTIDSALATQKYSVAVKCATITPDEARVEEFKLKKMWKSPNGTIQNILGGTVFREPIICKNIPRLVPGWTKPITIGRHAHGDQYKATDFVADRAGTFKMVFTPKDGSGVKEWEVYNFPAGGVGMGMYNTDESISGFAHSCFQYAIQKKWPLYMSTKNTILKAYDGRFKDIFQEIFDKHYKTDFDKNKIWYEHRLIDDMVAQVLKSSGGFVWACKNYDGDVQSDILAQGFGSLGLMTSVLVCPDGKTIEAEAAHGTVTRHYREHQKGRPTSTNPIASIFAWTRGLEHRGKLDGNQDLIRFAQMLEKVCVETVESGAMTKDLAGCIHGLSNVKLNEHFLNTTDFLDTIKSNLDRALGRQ
In words: Inhibitory activity against mutant IDH2/R140Q at the cellular level (extracellular 2-HG, U87MG cells). Conditions: glioma cell U87MG overexpressing IDH2/R140Q; for IC50: 2-HG in culture medium. As to the method: (§1) 2-Hydroxyglutarate dehydrogenase (2HGDH) can reduce NAD+ to NADH in the presence of 2-HG. The later can be quantitatively detected by diaphorase and its substrate Resazurin.
(§2) The cells were digested with trypsin and seeded in a 96-well plate at a density of 1×10^4 with a medium of 200 μL and cultured in a 37° C. incubator overnight. The next day, the test compound was added to a final concentration of 0.1% for DMSO. […] The protein and other components in the culture medium that may interfere with the results were filtered, and the follow-up method was used to detect the content of 2-HG.
(§3) Extracellular 2-HG Detecting System:
(§4) (1) 50 μL reaction system: reaction buffer (50 mM Tris pH7.5, 100 mM NaCl, 20 mM MgCl2, 0.05% BSA), in which the final concentration of NAD+ was 40 μM, the final concentration of 2HGDH was 20 nM, and the test sample was added to 5 μL of culture medium; the reaction solution was mixed and centrifuged, and the reaction was carried out for 1 hour at 25° C. in the dark;
(2) 25 μL color development system: color development buffer (50 mM Tris pH7.5, 100 mM NaCl, 20 mM MgCl2, 0.05% BSA), in which the final concentration of diaphorase was 36 μg/mL, and the final concentration of resazurin sodium was 3 μM; 25 μL of the above-mentioned color developing solution was added to the 50 μL reaction system in (1), mixed and centrifuged, and the fluorescence value was measured immediately under Ex544/Em590.
(§5) Preparation of standard curve of 2-HG: the stock solution of 2-HG was diluted to 20 μM with reaction buffer, and a 2-fold gradient diluting was performed for a total of 6 points. Afterwards the above-mentioned 2-HG was measured according to the extracellular 2-HG detecting system, and a standard curve was calculated and drawn.
Calculation of Extracellular 2-HG Content:
the fluorescence value obtained in the extracellular 2-HG detecting system was calculated using the 2-HG standard curve to calculate the content of 2-HG in the culture medium, and DMSO was used as a negative control to calculate the compound's inhibition against IDH1/R132H mutation producing the 2-HG activity.
The experimental steps were the same as in Example 7, except that the glioma cell U87MG overexpressing the IDH1/R132H mutation was replaced with the glioma cell U87MG overexpressing the IDH2/R140Q mutation.

Another experiment deals with T2, IDH1/R132C (Homo sapiens, UniProt O75874, R132C).
T2 construct: the fibrosarcoma cell HT-1080 containing the IDH1/R132C mutation; endogenous in cells; host or cells: HT-1080 fibrosarcoma cells
In words: Inhibitory activity against mutant IDH1/R132C at the cellular level (extracellular 2-HG, HT-1080 cells). As to the method: as §1, §2, §3, §4, §5

Another experiment concerns the target T3, IDH1/R132H (Homo sapiens, UniProt O75874, R132H).
T3 construct: expressed in transfected cells; host or cells: U87MG glioma cells
Briefly: Inhibitory activity against mutant IDH1/R132H at the cellular level (extracellular 2-HG, U87MG cells). As to the method:
as §1, §2, §3, §4, §5

[1] abbreviates: fibrosarcoma cell HT-1080 containing IDH1/R132C, 2-HG in culture medium, read-out: IC50 (nM), inhibitory activity against IDH1/R132C.
Setting [2] is: fibrosarcoma cell HT-1080 containing IDH1/R132C, 2-HG in culture medium, read-out: IC50, inhibitory activity against IDH1/R132C.
Setting [3] is: glioma cell U87MG overexpressing IDH1/R132H, 2-HG in culture medium, read-out: IC50, inhibitory activity against IDH1/R132H.
[4] abbreviates: glioma cell U87MG overexpressing IDH1/R132H, 24 hours, 2-HG in culture medium, read-out: IC50 (nM), inhibitory activity against IDH1/R132H.

T2 sequence (O75874 2-414 R132C limits assumed): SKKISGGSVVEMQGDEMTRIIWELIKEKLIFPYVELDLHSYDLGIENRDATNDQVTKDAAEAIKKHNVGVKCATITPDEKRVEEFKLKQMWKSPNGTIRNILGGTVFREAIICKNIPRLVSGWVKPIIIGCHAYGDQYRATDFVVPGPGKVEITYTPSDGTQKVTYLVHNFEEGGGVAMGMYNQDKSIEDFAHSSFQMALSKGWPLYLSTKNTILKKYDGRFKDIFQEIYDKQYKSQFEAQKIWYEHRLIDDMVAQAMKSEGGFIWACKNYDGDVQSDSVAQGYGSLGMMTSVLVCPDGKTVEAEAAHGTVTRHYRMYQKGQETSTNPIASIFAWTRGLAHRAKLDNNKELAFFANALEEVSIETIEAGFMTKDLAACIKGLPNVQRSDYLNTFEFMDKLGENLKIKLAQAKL
T3 sequence (O75874 whole entry R132H): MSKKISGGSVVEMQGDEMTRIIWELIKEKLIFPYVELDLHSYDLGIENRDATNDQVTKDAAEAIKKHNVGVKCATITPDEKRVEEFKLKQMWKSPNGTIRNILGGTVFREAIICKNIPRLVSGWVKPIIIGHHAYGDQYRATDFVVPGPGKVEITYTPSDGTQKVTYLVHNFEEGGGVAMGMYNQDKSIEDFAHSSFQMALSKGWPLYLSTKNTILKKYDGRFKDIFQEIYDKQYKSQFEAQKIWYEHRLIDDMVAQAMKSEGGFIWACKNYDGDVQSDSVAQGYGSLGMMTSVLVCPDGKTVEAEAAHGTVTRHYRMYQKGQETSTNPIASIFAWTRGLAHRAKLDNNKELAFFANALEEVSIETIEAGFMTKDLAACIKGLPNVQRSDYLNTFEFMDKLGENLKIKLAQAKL

The compound `N#Cc1ccnc(N2C(=O)CC[C@H]2C(=O)N(c2cncc(F)c2)[C@H](C(=O)NC2CC(F)(F)C2)c2ccccc2Cl)c1` [AG-120, reference compound] registered an IC50 against IDH2/R140Q above 20 µM.
With `CC(C)[C@H]1COC(=O)N1c1ccnc(N[C@@H](C)c2ccc(OCCOCCOCCOc3ccc([C@H](C)Nc4nccc(N5C(=O)OC[C@@H]5C(C)C)n4)nc3)cn2)n1` [Compound 1, (4S,4′S)-3,3′-(2,2′-(((1S,1′S)-(5,5′-(((ethane-1,2-diylbis(oxy))bis(ethane-2,1-diyl))bis(oxy))bis(pyridine-5,2-diyl))bis(ethane-1,1-diyl))bis(azanediyl))bis(pyrimidine-4,2-diyl))bis(4-isopropyloxazolidin-2-one)], the “Inhibition of IDH2/R140Q” value on IDH2/R140Q was “did not inhibit”. The IC50 at IDH2/R140Q is above 20 µM; at IDH1/R132C (setting [1]), below 5 nM; at IDH1/R132C (setting [2]), at most 5 nM; at IDH1/R132H (setting [3]) it was at most 5 nM; at IDH1/R132H (setting [4]) it was below 5 nM.
Take `CC(C)[C@H]1COC(=O)N1c1ccnc(N[C@@H](C)c2ccc(OCCOCCOCCOCCOc3ccc([C@H](C)Nc4nccc(N5C(=O)OC[C@@H]5C(C)C)n4)nc3)cn2)n1` [Compound 2, (4S,4′S)-3,3′-(2,2′-(((1S,1′S)-(5,5′-((((oxybis(ethane-2,1-diyl))bis(oxy))bis(ethane-2,1-diyl))bis(oxy))bis(pyridine-5,2-diyl))bis(ethane-1,1-diyl))bis(azanediyl))bis(pyrimidine-4,2-diyl))bis(4-isopropyloxazolidin-2-one)]: the “Inhibition of IDH2/R140Q” value at IDH2/R140Q is recorded as “did not inhibit”. Further, the IC50 was above 20 µM at IDH2/R140Q; below 5 nM at IDH1/R132C (setting [1]); at most 5 nM at IDH1/R132C (setting [2]); at most 5 nM at IDH1/R132H (setting [3]); below 5 nM at IDH1/R132H (setting [4]).
On IDH2/R140Q, `CC(C)[C@H]1COC(=O)N1c1ccnc(N[C@@H](C)c2ccccc2)n1` [IDH125, reference compound] displayed an IC50 above 20 µM.
`CC(C)[C@H]1COC(=O)N1c1ccnc(N[C@@H](C)c2ccccn2)n1` [Ref1, reference compound]: the IC50 is above 20 µM against IDH2/R140Q, 500 to 10000 nM at IDH1/R132C and 500 to 10000 nM on IDH1/R132H.

For the origin of these results see US20220267309A1, “DIMERIC OR POLYMERIC FORM OF MUTANT IDH INHIBITOR” (EPITAS BIOSCIENCES (SHANGHAI) CO., LTD., priority 2019, published 2022).
